Test results: patent US7659394B2 (Pfizer Inc, priority 2004, dated 2010)

Tests used:
[1] = target: T1, human norepinephrine transporter (Homo sapiens, UniProt P23975); assay: hNET receptor binding ([125I]-RTI-55 radioligand binding); details: membranes of HEK-293 cells transfected with human norepinephrine transporter, IC50 converted to Ki by Cheng-Prusoff, read-out: hNET (Ki)
T1 construct: host or cells: HEK-293
Procedure, shortened: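 Membranes from HEK-293 cells transfected with human NET. Nonspecific binding defined with 10 μM desipramine, duplicates. IC50 by nonlinear regression, converted to Ki with Cheng-Prusoff.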

[2] = target: T2, human seritonin transporter (Homo sapiens, UniProt P31645); assay: hSERT receptor binding ([125I]-RTI-55 radioligand binding); details: membranes of HEK-293 cells transfected with human seritonin transporter, IC50 converted to Ki by Cheng-Prusoff, read-out: SERT (Ki)
T2 construct: host or cells: HEK-293
T2 sequence (P31645 whole entry): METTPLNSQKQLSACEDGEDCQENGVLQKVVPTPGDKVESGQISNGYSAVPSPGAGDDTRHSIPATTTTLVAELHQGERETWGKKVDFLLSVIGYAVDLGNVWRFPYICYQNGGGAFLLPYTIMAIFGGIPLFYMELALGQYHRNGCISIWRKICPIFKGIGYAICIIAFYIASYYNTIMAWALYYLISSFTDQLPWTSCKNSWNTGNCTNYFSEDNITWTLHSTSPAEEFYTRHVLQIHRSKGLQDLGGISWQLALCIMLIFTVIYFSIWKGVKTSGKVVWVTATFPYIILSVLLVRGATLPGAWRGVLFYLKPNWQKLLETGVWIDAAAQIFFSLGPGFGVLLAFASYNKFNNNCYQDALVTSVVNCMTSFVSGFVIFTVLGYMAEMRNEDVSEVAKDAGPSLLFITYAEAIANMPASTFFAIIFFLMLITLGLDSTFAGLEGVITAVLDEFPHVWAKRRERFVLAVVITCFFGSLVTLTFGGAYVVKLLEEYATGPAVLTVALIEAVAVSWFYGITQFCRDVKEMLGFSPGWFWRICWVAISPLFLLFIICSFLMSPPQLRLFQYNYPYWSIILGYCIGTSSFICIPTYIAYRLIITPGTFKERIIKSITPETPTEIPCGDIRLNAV

T1 sequence (P23975 whole entry): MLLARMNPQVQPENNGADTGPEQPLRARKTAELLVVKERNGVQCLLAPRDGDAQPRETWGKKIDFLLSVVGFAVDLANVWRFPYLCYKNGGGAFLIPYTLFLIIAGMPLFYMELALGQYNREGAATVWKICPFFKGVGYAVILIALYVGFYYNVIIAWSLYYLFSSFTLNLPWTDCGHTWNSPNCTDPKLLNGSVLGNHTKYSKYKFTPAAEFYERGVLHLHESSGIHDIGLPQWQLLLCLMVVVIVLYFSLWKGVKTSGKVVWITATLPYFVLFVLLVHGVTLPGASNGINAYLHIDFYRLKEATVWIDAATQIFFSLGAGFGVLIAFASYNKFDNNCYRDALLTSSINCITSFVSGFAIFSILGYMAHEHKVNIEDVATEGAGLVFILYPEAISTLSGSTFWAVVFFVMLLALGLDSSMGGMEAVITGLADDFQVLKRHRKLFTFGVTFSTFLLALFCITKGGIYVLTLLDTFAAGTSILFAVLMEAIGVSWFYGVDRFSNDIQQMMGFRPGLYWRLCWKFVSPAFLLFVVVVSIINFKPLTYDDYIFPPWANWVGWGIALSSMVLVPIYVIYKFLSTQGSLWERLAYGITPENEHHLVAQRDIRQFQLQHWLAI

Row | SMILES | Ki [1] [nM] | Ki [2] [nM]
1 | CCOc1ccccc1O[C@@H](C1CCCCC1)[C@@H]1CNCCO1 [Example 51, (S)-2-[(S)-Cyclohexyl-(2-ethoxy-phenoxy)-methyl]-morpholine] | 16 | ≥ 10000
2 | Fc1ccc(O[C@@H](c2ccccc2)[C@@H]2CNCCO2)c(F)c1 [Example 68, (S)-2-[(S)-(2,4-Difluoro-phenoxy)-phenyl-methyl]-morpholine] | 19 | 660
3 | CCOc1ccccc1OC(CC)[C@@H]1CNCCO1 (mixture of isomers) [Example 106] | 54 | ≥ 10000
4 | Clc1ccccc1-c1ccccc1O[C@@H](c1ccccc1)[C@@H]1CNCCO1 [Example 30, (S)-2-[(S)-(2′-Chloro-biphenyl-2-yloxy)-phenyl-methyl]-morpholine] | 41 | ≥ 10000
5 | Fc1cccc(F)c1O[C@@H](c1ccccn1)[C@@H]1CNCCO1 [Example 160, (2S)-2-[(S)-(2,6-difluorophenoxy)(pyridin-2-yl)methyl]morpholine] | 6 | 6500
6 | c1ccc([C@H](Oc2ccccc2-c2ccncc2)[C@@H]2CNCCO2)cc1 [Example 10, (S)-2-[(S)-Phenyl-(2-pyridin-4-yl-phenoxy)-methyl]-morpholine] | 689 | ≥ 10000
7 | CCOc1ccccc1OC(c1cccc(F)c1)C1CNCCO1 (stereo in doubt) [Example 70, (R)-2-[(S)-(2-Ethoxy-phenoxy)-(3-fluoro-phenyl)-methyl]-morpholine] | 11 | 818
8 | c1ccc(-c2ccccc2O[C@@H](c2ccccn2)[C@@H]2CNCCO2)cc1 [Example 153, (2S)-2-[(S)-(biphenyl-2-yloxy)(pyridin-2-yl)methyl]morpholine] | 14 | 6320
9 | CCCC(Oc1ccccc1OCC)[C@@H]1CNCCO1 (mixture of isomers) [Example 104, (2S)-2-[(1S)-1-(2-ethoxyphenoxy)butyl]morpholine] | 2390 | 9790
10 | CC(C)c1ccccc1O[C@@H](c1ccccc1)[C@@H]1CNCCO1 [Example 44, (S)-2-[(S)-(2-Isopropyl-phenoxy)-phenyl-methyl]-morpholine] | 5.3 | 1360
11 | Fc1cccc(OC(F)(F)F)c1O[C@@H](c1ccccc1)[C@@H]1CNCCO1 [Example 194, (2S)-2-[(S)-[2-fluoro-6-(trifluoromethoxy)phenoxy](phenyl)methyl]morpholine] | 9 | 2560
12 | CCCc1ncccc1O[C@@H](c1ccccc1)[C@@H]1CNCCO1 [Example 135, (2S)-2-{(S)-phenyl[(2-propylpyridin-3-yl)oxy]methyl}morpholine] | 32 | 4480
13 | Fc1ccccc1OC(c1ccccn1)[C@@H]1CNCCO1 (single isomer, unassigned) [Example 121] | 470 | ≥ 10000
14 | FC(F)(F)Oc1ccccc1O[C@@H](c1cccnc1)[C@H]1CNCCO1 [Example 26, (R)-2-[(S)-Pyridin-3-yl-(2-trifluoromethoxy-phenoxy)-methyl]-morpholine] | 359 | 2440
15 | Fc1cccc(F)c1O[C@H](C1=CCCC1)[C@@H]1CNCCO1 [Example 147, (2S)-2-[(R)-cyclopent-1-en-1-yl(2,6-difluorophenoxy)methyl]morpholine] | 2570 | 2530
16 | CCOc1ccccc1O[C@@H](c1cccc(OC)n1)[C@@H]1CNCCO1 [Example 108, (2S)-2-[(S)-(2-ethoxyphenoxy)(6-methoxypyridin-2-yl)methyl]morpholine] | 28 | 676
17 | Fc1cccc(F)c1OC(c1cc2ccccc2o1)[C@@H]1CNCCO1 (mixture of isomers) [Example 143, (2S)-2-[1-benzofuran-2-yl(2,6-difluorophenoxy)methyl]morpholine] | 896 | 3320
18 | Cc1cccnc1[C@H](Oc1ccccc1OC(F)(F)F)[C@@H]1CNCCO1 [Example 139, (2S)-2-{(S)-(3-methylpyridin-2-yl)[2-(trifluoromethoxy)phenoxy]methyl}morpholine] | 1190 | 1140
19 | CCOc1ccccc1OC(C1CC1)[C@@H]1CNCCO1 (stereo partly drawn) [Example 118, (2S)-2-[cyclopropyl(2-ethoxyphenoxy)methyl]morpholine] | 1140 | ≥ 10000
20 | COc1cccc([C@H](Oc2c(F)cccc2F)[C@@H]2CNCCO2)n1 [Example 199, (2S)-2-[(S)-(2,6-difluorophenoxy)(6-methoxypyridin-2-yl)methyl]morpholine] | 8 | 2940
21 | c1ccc(C(Oc2ccc3ccoc3c2)C2CNCCO2)cc1 (stereo in doubt) [Example 45, (R)-2-[(S)-(Benzofuran-6-yloxy)-phenyl-methyl]-morpholine] | 10 | 45

Row | SMILES | Ki [1] [nM] | Ki [2] [nM]
22 | Fc1ccc(Cl)c(OC(c2ccccc2)[C@@H]2CNCCO2)c1 (stereo partly drawn) [Example 94, (2S)-2-[(2-chloro-5-fluorophenoxy)(phenyl)methyl]morpholine] | 8 | 811
23 | Fc1ccc(Cl)c(O[C@@H](c2ccccn2)[C@@H]2CNCCO2)c1 [Example 152, (2S)-2-[(S)-(2-chloro-5-fluorophenoxy)(pyridin-2-yl)methyl]morpholine] | 9 | 1940
24 | c1ccc([C@H](Oc2cccnc2OCC2CC2)[C@@H]2CNCCO2)cc1 [Example 192, (2S)-2-[(S)-{[2-(cyclopropylmethoxy)pyridin-3-yl]oxy}(phenyl)methyl]morpholine] | 38 | 1880
25 | CCSc1ccccc1O[C@@H](c1ccccc1)[C@@H]1CNCCO1 [Example 2, (S)-2-[(S)-(2-Ethylsulfanyl-phenoxy)-phenyl-methyl]-morpholine] | 6.3 | 564
26 | Fc1cccc(F)c1OC(Cc1ccccc1)[C@@H]1CNCCO1 (mixture of isomers) [Example 101, (2S)-2-[1-(2,6-difluorophenoxy)-2-phenylethyl]morpholine] | 66 | 912
27 | CCOC(=O)c1ccccc1O[C@@H](c1ccccc1)[C@@H]1CNCCO1 [Example 15, (2S,3S)-2-(Morpholin-2-yl-phenyl-methoxy)-benzoic acid ethyl ester] | 15 | 3770
28 | Brc1ccccc1O[C@@H](c1ccccc1)[C@H]1CNCCO1 [Example 67, (R)-2-[(S)-(2-Bromo-phenoxy)-phenyl-methyl]-morpholine] | 21 | 93
29 | Fc1ccc(Oc2ncccc2OC[C@H]2CNCCO2)cc1 [Example 89, (2R)-2-[2-(4-Fluoro-phenoxy)-pyridin-3-yloxymethyl]-morpholine] | 4110 | ≥ 10000
30 | CCOc1ncccc1O[C@@H](c1ccccc1)[C@@H]1CNCCO1 [Example 137, (2S)-2-[(S)-[(2-ethoxypyridin-3-yl)oxy](phenyl)methyl]morpholine] | 9 | 1810
31 | Cc1ccc(-c2ccccc2O[C@@H](c2ccccc2)[C@@H]2CNCCO2)cc1 [Example 82, (S)-2-[(S)-(4′-Methyl-biphenyl-2-yloxy)-phenyl-methyl]-morpholine] | 11 | 2610
32 | CSc1cc(F)ccc1O[C@@H](c1ccccc1)[C@@H]1CNCCO1 [Example 198, (2S)-2-[(S)-[4-fluoro-2-(methylthio)phenoxy](phenyl)methyl]morpholine] | 30 | 62
33 | Fc1cccc(F)c1OC(c1nccs1)[C@@H]1CNCCO1 (stereo partly drawn) [Example 175, (2S)-2-[(2,6-difluorophenoxy)(1,3-thiazol-2-yl)methyl]morpholine] | 15 | 7640
34 | CCOc1ccccc1O[C@@H](c1ncccc1C)[C@@H]1CNCCO1 [Example 138, (2S)-2-[(S)-(2-ethoxyphenoxy)(3-methylpyridin-2-yl)methyl]morpholine] | 1610 | 3820
35 | CC(C)c1ncccc1O[C@@H](c1ccccc1)[C@@H]1CNCCO1 [Example 179, (2S)-2-[(S)-[(2-isopropylpyridin-3-yl)oxy](phenyl)methyl]morpholine] | 18 | 2550
36 | Cc1cccc(F)c1O[C@@H](c1ccccc1)[C@@H]1CNCCO1 [Example 178, (2S)-2-[(S)-(2-fluoro-6-methylphenoxy)(phenyl)methyl]morpholine] | 3 | 61
37 | CCOc1ncccc1OC(C(C)C)[C@@H]1CNCCO1 (stereo partly drawn) [Example 189, (2S)-2-{1-[(2-ethoxypyridin-3-yl)oxy]-2-methylpropyl}morpholine] | 147 | 5220
38 | CC(C)Oc1cccc(F)c1O[C@@H](c1ccccc1)[C@@H]1CNCCO1 [Example 165, (2S)-2-[(S)-(2-fluoro-6-isopropoxyphenoxy)(phenyl)methyl]morpholine] | 4 | 351
39 | c1ccc([C@H](Oc2ccccc2C2CCCC2)[C@@H]2CNCCO2)cc1 [Example 55, (S)-2-[(S)-(2-Cyclopentyl-phenoxy)-phenyl-methyl]-morpholine] | 12 | 2240
40 | Fc1ccc(-c2ncccc2O[C@@H](c2ccccc2)[C@@H]2CNCCO2)cc1 [Example 33, (S)-2-{(S)-[2-(4-Fluoro-phenyl)-pyridin-3-yloxy]-phenyl-methyl}-morpholine] | 22 | 2410
41 | c1ccc(C(Oc2ccccc2C2CC2)[C@H]2CNCCO2)cc1 (stereo partly drawn) [Example 114, (2R)-2-[(2-cyclopropylphenoxy)(phenyl)methyl]morpholine] | 35 | 75
42 | CC(C)c1cccc(F)c1O[C@@H](c1ccccc1)[C@@H]1CNCCO1 [Example 183, (2S)-2-[(S)-(2-fluoro-6-isopropylphenoxy)(phenyl)methyl]morpholine] | 7 | 5340
